Results on ten compounds are retold here after publication PMC9268615, “Identification of Anti-Proliferative Compounds from Genista monspessulana Seeds through Covariate-Based Integration of Chemical Fingerprints and Bioactivity Datasets” (Molecules, 2022).

pIC50: −log10 of the molar value. Several values for one entry are separate records, joined by “and”; a condition that tells them apart may be missing. Identical values can stand only once. Like-named read-outs stand apart in the source and are kept apart here. Where only a bound is given, the exact number is not on record here.

Experiment [1] relates to A549 (human lung carcinoma). The experiment is described as follows: MTT cell viability assay, A549. Format: cell-based. Particulars: for pIC50: Homo sapiens, A549, pure compounds, MTT, 48 h incubation. Here is the method:
(§1) Human prostatic adenocarcinoma (PC-3, ATCC CRL-7934), human lung adenocarcinoma (A549, ATCC CCL-185), and human cervical carcinoma (SiHa, ATCC HTB-35) cancer cell lines and normal mouse fibroblasts (L929, ATCC CRL-6364) were maintained in a humidified atmosphere with 5% CO2 at 37 °C, and grown as a monolayer culture in Dulbecco’s Modified Eagle Medium (DMEM) medium with 10% (v/v) fetal bovine serum (FBS), 1% (v/v) penicillin, and 1% (v/v) streptomycin. The anti-proliferative effects of G. monspessulana extracts and isolated compounds were measured according to a reported method. Cell suspension (100 µL, 5 × 10^3 cells/well) was inoculated in 96-well plates and cultured for 24 h. After that, the culture medium was replaced with a serum-free medium (100 µL) containing different concentrations of treatments (0.8–500 µg/mL for extracts and 0.16–100 µg/mL for pure compounds). Extracts and compounds were measured in triplicate. A PBS-containing free medium was used as a blank, 1% (w/v) bovine serum albumin-amended medium as negative control (100% survival), and curcumin (0.16–100 µg/mL) was used as the positive control. After 48 h of incubation, the cell viability was assessed by adding MTT (10 µL, 5 mg/mL) to each well, and the plates were subsequently incubated under 5% CO2 at 37 °C for 3 h. Formazan crystals were dissolved with 100 µL of DMSO. Absorbance was measured at 570 nm using a Varioskan LUX 96-well plate reader (Thermo Fisher Scientific, Waltham, MA, USA). The anti-proliferative effects were expressed as half-maximal inhibitory concentration (IC50) in µg/mL (extracts) and µM (compounds). The IC50 values were calculated from the dose-response curves through non-linear regression using GraphPad 5.0 (GraphPad Software, San Diego, CA, USA).

For experiment [2], the system named is SiHa (human cervical carcinoma). The experiment is described as follows: MTT cell viability assay, SiHa. In kind it is cell-based. Particulars: for pIC50: Homo sapiens, SiHa, pure compounds, MTT, 48 h incubation. The method, then: as §1
A general note: Formazan colour is commonly taken as a measure of viable cells.

Experiment [3] relates to PC-3 (human prostate adenocarcinoma). Kind of experiment: MTT cell viability assay, PC-3. Format: cell-based. Particulars: for pIC50: pure compounds, MTT, 48 h incubation. The method, then: as §1
Experiment [4] relates to L929 (normal mouse fibroblasts). The experiment is described as follows: MTT cell viability assay, L929 fibroblasts. Format: cell-based. As to conditions: 48 h incubation; for pIC50: Mus musculus, L929, pure compounds; for IC50 L929: pure compounds. Here is the method: as §1
Another experiment concerns K-562 cell line. Also on record: method as in PMID 23850732. As to conditions: cited from earlier work.
The next experiment has as its system MOLT-4 cell line. Also on record: method as in PMID 23850732. As to conditions: cited from earlier work.
Experiment [5] deals with HL-60 cell line. Also on record: method as in PMID 23850732. Particulars: cited from earlier work.
Experiment [6] has as its system MDA-MB-231 (human breast cancer cell line). Further details: method as in PMID 30467293. As to conditions: vs cytisine and (−)-maackiain; cited from earlier work.
Experiment [7] has as its system MCF-7 (human breast cancer cell line). Further details: method as in PMID 30467293. As to conditions: vs cytisine and (−)-maackiain; cited from earlier work.
For experiment [8], the system named is HepG2 (human hepatocellular carcinoma) cell line. As to conditions: cited from earlier work.
The next experiment concerns MCF-7 cell line. As to conditions: cited from earlier work.
A further experiment deals with FaDu cell line. As to conditions: cited from earlier work.
A further experiment concerns A549 cell line. As to conditions: read-out: IC50 A549; cytotoxic through apoptosis induction; cited from earlier work.
A further experiment relates to MDA-MB cell line. Particulars: cited from earlier work.
Experiment [9] deals with SMMC-7721 (hepatocellular carcinoma) cells. Further details: method as in PMID 29330507. Particulars: cited from earlier work.
The test system of experiment [10] is HL-60 cell line. Further details: method as in PMID 16887297. As to conditions: cytotoxic activity; cited from earlier work.
In experiment [11] the test system is various cancer cell lines (KB, P-388, HL-60, K-562, MOLT-4, H2108, H1299, MRC-5, 786-O, Caki1, SN12C, SH-SY5Y, A375, SK-MEL-1, Eca109, KYSE30, HCT-116, SW480). Further details: method as in PMID 31551770. Particulars: cytotoxicity; cited from earlier work.
The next experiment deals with PC-3. Further details: method as in doi:10.1590/S0103-50532012000300015. As to conditions: cited from earlier work.

By pIC50 is commonly meant the IC50 on a negative log10 scale, so that one unit is a factor of ten. For `CC1(C)C=Cc2c(cc3occ(-c4ccc(O)c(CN5C[C@@H]6C[C@H](C5)c5cccc(=O)n5C6)c4)c(=O)c3c2O)O1` [Compound 8, (–)-3′-(N-cytisine)methylalpinumisoflavone], the pIC50 in experiment [1] was 4.33; in experiment [2], 4.76; in experiment [3] (Homo sapiens) it was 5.00; in experiment [4], 3.41. Besides, in experiment [1] (L929 vs A549), the “selectivity index (SI = IC50 normal cells/IC50 cancer cells) A549” value was determined as 8.2. In addition, the “selectivity index (SI = IC50 normal cells/IC50 cancer cells) SiHa” value in experiment [2] (L929 vs SiHa) is 22.0. Also, in experiment [3] (L929 vs PC-3), the “selectivity index (SI = IC50 normal cells/IC50 cancer cells) PC-3” value is 38.1 and > 30.

Take `O=C1[C@@H]2C[C@H](CN3CCCC[C@@H]23)[C@H]2CCCCN12` [Compound 3, (+)-aphylline]: the pIC50 is less than 3.39 in experiment [1]; less than 3.39 in experiment [2]; 4.67 in experiment [3] (Homo sapiens, 48 h); 4.65 in [4].

On to `CC(C)=CCc1c(O)cc2occ(-c3ccc(O)cc3)c(=O)c2c1O` [Compound 6, wighteone], for which the pIC50 was less than 3.53 in experiment [1]; less than 3.53 in experiment [2]; 4.46 in experiment [3] (Homo sapiens, 48 h); less than 3.53 in [4]; less than 4.15 in the experiment with K-562 cell line; less than 4.15 in the experiment on MOLT-4 cell line. Further, the pIC50 with HL-60 cell line [5] was less than 4.15. For the same compound, in [4], the “IC50 L929” value is “inactive”.

Regarding tonkinensine B, in [6], the “fold better activity than respective precursors, MDA-MB-231” value is on record as 2–3 fold. Further, the “fold better activity than respective precursors, MCF-7” value in experiment [7] is 2–3 fold.

Regarding `O=C1CCC=C2C3CC(CN12)C1CCCCN1C3` (single isomer, unassigned; (+)) [Compound 7, (+)-5,6-dehydrolupanine], the pIC50 in experiment [1] is less than 3.39; in experiment [2], less than 3.39; in experiment [3] (Homo sapiens, 48 h) it was 4.50; in [4] it was 4.07.

For `O=c1cccc2n1C[C@@H]1CNC[C@H]2C1` [Compound 1, (–)-cytisine], the pIC50 in [1] was 4.37; in [2] it was 3.45; in [3] (Homo sapiens, 48 h) it was more than 4.73; in experiment [3], 4.80; in [4], 3.99; in the experiment with A549 cell line, 4.57. Besides, the “effect on HepG2 cell line” value in [8] is “inducing mitochondrial-mediated apoptosis”. In the experiment on MCF-7 cell line, the “effect on MCF-7 cell line” value is given as “not affected”. Also, the “effect on FaDu cell line” value in the experiment with FaDu cell line is on record as “not affected”. Besides, the “effect on MDA-MB cell line” value in the experiment with MDA-MB cell line is listed as “not affected”.

In the case of `CN1CC2CC(C1)c1cccc(=O)n1C2` (single isomer, unassigned; (-)) [Compound 5, (–)-N-methylcytisine], the pIC50 in experiment [1] was 4.44; in experiment [2] it was less than 3.31; in experiment [3] (Homo sapiens, 48 h) it was 4.55; in experiment [4] it was 4.04. Besides, the “proliferation of SMMC-7721 cells” value in experiment [9] was “can inhibit the proliferation”.

Take `COc1cc(/C=C/C(=O)CC(=O)/C=C/c2ccc(O)c(OC)c2)ccc1O` [curcumin, reference compound]: the pIC50 in [1] is 5.08; in experiment [2], 5.19; in [3] (Homo sapiens, 48 h), 5.02; in experiment [4] it was 3.98.

Take `O=c1cccc2n1C[C@H]1C[C@@H]2CN2CCCC[C@H]12` [Compound 4, (–)-anagyrine]: the pIC50 was less than 3.39 in experiment [1]; less than 3.39 in [2]; 4.47 in [3] (Homo sapiens); 4.44 in experiment [4]; 4.74 with HL-60 cell line [10].

For `CC1(C)C=Cc2c(cc3occ(-c4ccc(O)cc4)c(=O)c3c2O)O1` [Compound 2, alpinumisoflavone], the pIC50 in [1] was less than 3.52; in experiment [11] it was more than 4.15; in the experiment with PC-3, more than 4.52; in [2] it was 4.71; in experiment [3] (Homo sapiens, 48 h), more than 4.73; in experiment [3], 4.73. The compound further gave a pIC50 in experiment [4] of less than 3.53. In experiment [4], the “IC50 L929” value was “inactive”.
